Columns and labels:
[1] = test system: Echinochloa oryzoides (Ard.) Fritsch.; assay: Preemergence weed control under flooded paddy conditions, ECHORC (Watergrass (Calif.)); type: in vivo; details: flooded paddy, rated three to four weeks after treatment; further: meaning of each grade not given here
Cyperus iria = assay: Preemergence weed control under flooded paddy conditions, CYPIR (Rice Flatsedge); type: in vivo; details: flooded paddy, rated three to four weeks after treatment; further: meaning of each grade not given here
[2] = test system: Cyperus serotinus, Rottb.; assay: Preemergence weed control under flooded paddy conditions, CYPSE (Flatsedge); type: in vivo; details: rated three to four weeks after treatment; further: meaning of each grade not given here
[3] = test system: Monochoria vaginalis, Presl.; assay: Preemergence weed control under flooded paddy conditions, MOOVA (Monochoria); type: in vivo; details: flooded paddy, rated three to four weeks after treatment; further: meaning of each grade not given here
Sagittaria pygmaea, L. = assay: Preemergence weed control under flooded paddy conditions, SAGPY (Arrowhead (Pygmaea)); type: in vivo; details: flooded paddy, rated three to four weeks after treatment; further: meaning of each grade not given here
[4] = test system: Oryza sativa, (L.) Tebonnet; assay: Rice tolerance to post-transplant applications under flooded paddy conditions (Example 187), ORYSAT (Rice, Tebonnet); details: rated three to four weeks after treatment
[5] = Rate 0.0320 kg/ha, preemergence weeds
[6] = Rate 0.0620 kg/ha, preemergence weeds
[7] = Rate 0.1250 kg/ha, preemergence weeds
[8] = Rate 0.2500 kg/ha, preemergence weeds
[9] = 0.0313 kg/ha, preemergence weeds
[10] = 0.0625 kg/ha, preemergence weeds
[11] = 0.1250 kg/ha, preemergence weeds
[12] = 0.2500 kg/ha, preemergence weeds
[13] = Rate 0.0320 kg/ha, preemergence
[14] = Rate 0.0620 kg/ha, preemergence
[15] = Rate 0.1250 kg/ha, preemergence
[16] = Rate 0.2500 kg/ha, preemergence

COC(=O)C(C)Oc1ccccc1Oc1noc2ccc(-n3c(=O)cc(C(F)(F)F)n(C)c3=O)cc12 (stereo not drawn) [Example 47, Methyl 2-{o-{{5-[3,6-dihydro-3-methyl-2,6-dioxo-4-(trifluoromethyl)-1(2H)-pyrimidinyl]-1,2-benzisoxazol-3-yl}oxy}phenoxy}propionate]
4.5: herbicidal effect rating, MOOVA ([3]; 0.0313 kg/ha, preemergence) | herbicidal effect rating, MOOVA ([3]; 0.0625 kg/ha, preemergence)
0.0: herbicidal effect rating, ECHORC ([1]; 0.0313 kg/ha, preemergence) | herbicidal effect rating, CYPIR (Cyperus iria; 0.0313 kg/ha, preemergence) | herbicidal effect rating, CYPIR (Cyperus iria; 0.0625 kg/ha, preemergence) | herbicidal effect rating, CYPIR (Cyperus iria; 0.1250 kg/ha, preemergence) | herbicidal effect rating, CYPSE ([2]; 0.0313 kg/ha, preemergence) | herbicidal effect rating, CYPSE ([2]; 0.0625 kg/ha, preemergence) | herbicidal effect rating, SAGPY (Sagittaria pygmaea, L.; 0.0313 kg/ha, preemergence) | herbicidal effect rating, SAGPY (Sagittaria pygmaea, L.; 0.0625 kg/ha, preemergence) | herbicidal effect rating, SAGPY (Sagittaria pygmaea, L.; 0.1250 kg/ha, preemergence) | herbicidal effect rating, SAGPY (Sagittaria pygmaea, L.; 0.2500 kg/ha, preemergence)
1.5: herbicidal effect rating, ECHORC ([1]; 0.0625 kg/ha, preemergence) | herbicidal effect rating, ORYSAT (rice tolerance) ([4]; 0.0313 kg/ha)
3.5: herbicidal effect rating, ECHORC ([1]; 0.1250 kg/ha, preemergence)
5.0: herbicidal effect rating, ECHORC ([1]; 0.2500 kg/ha, preemergence)
1.0: herbicidal effect rating, CYPIR (Cyperus iria; 0.2500 kg/ha, preemergence) | herbicidal effect rating, CYPSE ([2]; 0.1250 kg/ha, preemergence)
5.5: herbicidal effect rating, MOOVA ([3]; 0.1250 kg/ha, preemergence)
2.5: herbicidal effect rating, ORYSAT (rice tolerance) ([4]; 0.0625 kg/ha)
9.0: herbicidal effect rating, MOOVA ([3]; 0.2500 kg/ha, preemergence)
6.0: herbicidal effect rating, ORYSAT (rice tolerance) ([4]; 0.2500 kg/ha)
4.0: herbicidal effect rating, ORYSAT (rice tolerance) ([4]; 0.1250 kg/ha)
2.0: herbicidal effect rating, CYPSE ([2]; 0.2500 kg/ha, preemergence)

COc1ccc(C)cc1-c1noc2cc(F)c(-n3c(=O)cc(C(F)(F)F)n(C)c3=O)cc12 [Example 345, 2,4(1H,3H)-Pyrimidinedione, 3-[6-fluoro-3-(6-methoxy-m-tolyl)-1,2-benzisoxazol-5-yl]-1-methyl-6-(trifluoromethyl)-]
5.0: herbicidal effect rating, CYPSE [2, 5]
6.0: herbicidal effect rating ORYSAT ([4]; Rate 0.2500 kg/ha)
5.5: herbicidal effect rating ORYSAT ([4]; Rate 0.0320 kg/ha) | herbicidal effect rating ORYSAT ([4]; Rate 0.0620 kg/ha) | herbicidal effect rating ORYSAT ([4]; Rate 0.1250 kg/ha)
4.5: herbicidal effect rating, CYPSE [2, 7] | herbicidal effect rating, SAGPY (Sagittaria pygmaea, L.; [5])
9.0: herbicidal effect rating, ECHORC [1, 5] | herbicidal effect rating, ECHORC [1, 6] | herbicidal effect rating, ECHORC [1, 7] | herbicidal effect rating, ECHORC [1, 8] | herbicidal effect rating, CYPIR (Cyperus iria; [5]) | herbicidal effect rating, CYPIR (Cyperus iria; [6]) | herbicidal effect rating, CYPIR (Cyperus iria; [7]) | herbicidal effect rating, CYPIR (Cyperus iria; [8]) | herbicidal effect rating, CYPSE [2, 6] | herbicidal effect rating, CYPSE [2, 8] | herbicidal effect rating, MOOVA [3, 5] | herbicidal effect rating, MOOVA [3, 6] | herbicidal effect rating, MOOVA [3, 7] | herbicidal effect rating, MOOVA [3, 8] | herbicidal effect rating, SAGPY (Sagittaria pygmaea, L.; [6]) | herbicidal effect rating, SAGPY (Sagittaria pygmaea, L.; [7]) | herbicidal effect rating, SAGPY (Sagittaria pygmaea, L.; [8])

CC(=O)c1nsc2ccc(-n3c(=O)cc(C(F)(F)F)n(C)c3=O)cc12 [Example 307, 2,4(1H,3H)-Pyrimidinedione, 3-(3-acetyl-1,2-benzisothiazol-5-yl)-1-methyl-6-(trifluoromethyl)-]
7.0: herbicidal effect rating, CYPSE [2, 7]
6.5: herbicidal effect rating, CYPIR (Cyperus iria; [5]) | herbicidal effect rating, CYPIR (Cyperus iria; [6]) | herbicidal effect rating, CYPIR (Cyperus iria; [7]) | herbicidal effect rating, SAGPY (Sagittaria pygmaea, L.; [7])
8.0: herbicidal effect rating, MOOVA [3, 6]
0.0: herbicidal effect rating, CYPSE [2, 5] | herbicidal effect rating, SAGPY (Sagittaria pygmaea, L.; [5])
9.0: herbicidal effect rating, ECHORC [1, 8] | herbicidal effect rating, CYPSE [2, 8] | herbicidal effect rating, MOOVA [3, 7] | herbicidal effect rating, MOOVA [3, 8] | herbicidal effect rating, SAGPY (Sagittaria pygmaea, L.; [8]) | herbicidal effect rating ORYSAT ([4]; Rate 0.2500 kg/ha)
1.0: herbicidal effect rating, SAGPY (Sagittaria pygmaea, L.; [6])
6.0: herbicidal effect rating, ECHORC [1, 5] | herbicidal effect rating, MOOVA [3, 5] | herbicidal effect rating ORYSAT ([4]; Rate 0.0620 kg/ha)
7.5: herbicidal effect rating, CYPIR (Cyperus iria; [8])
5.0: herbicidal effect rating, ECHORC [1, 6] | herbicidal effect rating ORYSAT ([4]; Rate 0.0320 kg/ha)
3.5: herbicidal effect rating, CYPSE [2, 6]
8.5: herbicidal effect rating, ECHORC [1, 7] | herbicidal effect rating ORYSAT ([4]; Rate 0.1250 kg/ha)

C=CCOc1ccc(C)cc1-c1nsc2ccc(-n3c(=O)cc(C(F)(F)F)n(C)c3=O)cc12 [Example 65, 3-{3-[6-(Allyloxy)-m-tolyl]-1,2-benzisothiazol-5-yl}-1-methyl-6-(trifluoromethyl)-2,4(1H,3H)-pyrimidinedione]
0.0: herbicidal effect rating, ECHORC ([1]; 0.0313 kg/ha, preemergence) | herbicidal effect rating, ECHORC ([1]; 0.0625 kg/ha, preemergence) | herbicidal effect rating, ECHORC ([1]; 0.1250 kg/ha, preemergence) | herbicidal effect rating, ECHORC ([1]; 0.2500 kg/ha, preemergence) | herbicidal effect rating, CYPIR (Cyperus iria; 0.0313 kg/ha, preemergence) | herbicidal effect rating, CYPIR (Cyperus iria; 0.0625 kg/ha, preemergence) | herbicidal effect rating, CYPIR (Cyperus iria; 0.1250 kg/ha, preemergence) | herbicidal effect rating, CYPIR (Cyperus iria; 0.2500 kg/ha, preemergence) | herbicidal effect rating, CYPSE ([2]; 0.0313 kg/ha, preemergence) | herbicidal effect rating, CYPSE ([2]; 0.0625 kg/ha, preemergence) | herbicidal effect rating, CYPSE ([2]; 0.1250 kg/ha, preemergence) | herbicidal effect rating, CYPSE ([2]; 0.2500 kg/ha, preemergence) | herbicidal effect rating, MOOVA ([3]; 0.0313 kg/ha, preemergence) | herbicidal effect rating, MOOVA ([3]; 0.0625 kg/ha, preemergence) | herbicidal effect rating, MOOVA ([3]; 0.1250 kg/ha, preemergence) | herbicidal effect rating, MOOVA ([3]; 0.2500 kg/ha, preemergence) | herbicidal effect rating, SAGPY (Sagittaria pygmaea, L.; 0.0313 kg/ha, preemergence) | herbicidal effect rating, SAGPY (Sagittaria pygmaea, L.; 0.0625 kg/ha, preemergence) | herbicidal effect rating, SAGPY (Sagittaria pygmaea, L.; 0.1250 kg/ha, preemergence) | herbicidal effect rating, SAGPY (Sagittaria pygmaea, L.; 0.2500 kg/ha, preemergence) | herbicidal effect rating, ORYSAT (rice tolerance) ([4]; 0.0313 kg/ha) | herbicidal effect rating, ORYSAT (rice tolerance) ([4]; 0.0625 kg/ha) | herbicidal effect rating, ORYSAT (rice tolerance) ([4]; 0.1250 kg/ha) | herbicidal effect rating, ORYSAT (rice tolerance) ([4]; 0.2500 kg/ha)

Cn1c(C(F)(F)F)cc(=O)n(-c2ccc3snc(COCC(F)F)c3c2)c1=O [Example 203, 3-{3-[(2,2-Difluoroethoxy)methyl]-1,2-benzisothiazol-5-yl}-1-methyl-6-(trifluoromethyl)-2,4(1H,3H)-pyrimidinedione]
7.0: herbicidal effect rating, ORYSAT (rice tolerance) ([4]; 0.2500 kg/ha)
0.0: herbicidal effect rating, ECHORC [1, 9] | herbicidal effect rating, ECHORC [1, 10] | herbicidal effect rating, CYPSE [2, 9] | herbicidal effect rating, CYPSE [2, 10] | herbicidal effect rating, MOOVA [3, 9] | herbicidal effect rating, MOOVA [3, 10] | herbicidal effect rating, SAGPY (Sagittaria pygmaea, L.; [9]) | herbicidal effect rating, SAGPY (Sagittaria pygmaea, L.; [10])
9.0: herbicidal effect rating, CYPIR (Cyperus iria; [9]) | herbicidal effect rating, CYPIR (Cyperus iria; [10]) | herbicidal effect rating, CYPIR (Cyperus iria; [11]) | herbicidal effect rating, CYPIR (Cyperus iria; [12])
4.0: herbicidal effect rating, ECHORC [1, 12] | herbicidal effect rating, SAGPY (Sagittaria pygmaea, L.; [12]) | herbicidal effect rating, ORYSAT (rice tolerance) ([4]; 0.0313 kg/ha)
6.0: herbicidal effect rating, CYPSE [2, 12] | herbicidal effect rating, ORYSAT (rice tolerance) ([4]; 0.0625 kg/ha) | herbicidal effect rating, ORYSAT (rice tolerance) ([4]; 0.1250 kg/ha)
2.0: herbicidal effect rating, ECHORC [1, 11] | herbicidal effect rating, CYPSE [2, 11] | herbicidal effect rating, MOOVA [3, 11] | herbicidal effect rating, SAGPY (Sagittaria pygmaea, L.; [11])
8.0: herbicidal effect rating, MOOVA [3, 12]

CC(C#N)c1nsc2ccc(-n3c(=O)cc(C(F)(F)F)n(C)c3=O)cc12 (stereo not drawn) [Example 583, 1,2-Benzisothiazole-3-acetonitrile, 5-[3,6-dihydro-3-methyl-2,6-dioxo-4-(trifluoromethyl)-1(2H)-pyrimidinyl]-alpha-methyl-]
6.0: herbicidal effect rating, MOOVA [3, 13]
3.0: herbicidal effect rating, ECHORC [1, 13]
7.5: herbicidal effect rating, ECHORC [1, 14]
8.5: herbicidal effect rating, CYPSE [2, 13]
7.0: herbicidal effect rating ORYSAT ([4]; Rate 0.0620 kg/ha)
9.0: herbicidal effect rating, ECHORC [1, 15] | herbicidal effect rating, ECHORC [1, 16] | herbicidal effect rating, CYPIR (Cyperus iria; [13]) | herbicidal effect rating, CYPIR (Cyperus iria; [14]) | herbicidal effect rating, CYPIR (Cyperus iria; [15]) | herbicidal effect rating, CYPIR (Cyperus iria; [16]) | herbicidal effect rating, CYPSE [2, 14] | herbicidal effect rating, CYPSE [2, 15] | herbicidal effect rating, CYPSE [2, 16] | herbicidal effect rating, MOOVA [3, 14] | herbicidal effect rating, MOOVA [3, 15] | herbicidal effect rating, MOOVA [3, 16] | herbicidal effect rating, SAGPY (Sagittaria pygmaea, L.; [13]) | herbicidal effect rating, SAGPY (Sagittaria pygmaea, L.; [14]) | herbicidal effect rating, SAGPY (Sagittaria pygmaea, L.; [15]) | herbicidal effect rating, SAGPY (Sagittaria pygmaea, L.; [16]) | herbicidal effect rating ORYSAT ([4]; Rate 0.1250 kg/ha) | herbicidal effect rating ORYSAT ([4]; Rate 0.2500 kg/ha)
5.0: herbicidal effect rating ORYSAT ([4]; Rate 0.0320 kg/ha)

Reference: patent EP0908457B1, “3-(1,2-benzisothiazol- and isoxazol-5-Y1)-2,4(1H,3H)-pyrimidinedione or thione and 3-(1,2-benzisothiazol- and isoxazol-5-y1)-4(3H)-pyrimidinone or thione herbicidal agents” (BASF AKTIENGESELLSCHAFT, priority 1997, dated 1999)
